How the values were obtained:
[1] = tested on: phagocytic microglia (jellyfish morphology); assay: Phagocytic (jellyfish) microglia after meningeal compression injury, 2P microscopy; format: in vivo, heterozygous CX3CR1-GFP mice; settings: p<0.05; for percentage of phagocytic (jellyfish) microglia in the imaging field: antagonist in aCSF applied to skull bone 30 min prior to injury, quantified 3 hrs post-injury, vs vehicle, FIG. 3
Protocol: (§1) Skull Thinning & Compression Injury. For imaging experiments, mice were anesthetized with ketamine (85 mg/kg), xylazine (13 mg/kg), and acepromazine (2 mg/kg) in PBS and maintained at a core temperature of 37° C. The skull bone over the barrel cortex was then thinned to a thickness of ˜30-40 μm as described (PMID: 20134419). For this procedure, the bone was manually thinned over a 30 minute period, and the amount of downward pressure was kept to a minimum. To induce a compression injury, the skull was thinned within 5 min to a thickness of ˜10-15 μm. Once thinned, the blunt of a surgical instrument was used to gently press the pliable skull bone downward. […] In one set of experiments, the skull bone was intentionally cracked to induce a severe injury. Imaging was performed immediately after injury.
Intravital two-photon laser scanning microscopy. Mice with a normally thinned or compressed skull bone were imaged using a Leica SP5 two-photon imaging system (Leica Microsystems, Bannockburn, Ill.) equipped with an 8000 Hz resonant scanner, a 20×/1.0 NA dipping objective, and two Mai Tai HP DeepSee Lasers (SpectraPhysics) tuned to 905, 920 or 970 nm. Fluorescence emission was separated by high efficiency custom dichroic mirrors (Semrock) and collected with a NDD4 external detector (Leica). Stacks of images were acquired using a step size of 1.0 μm to a depth of 150 μm. Time lapse movies were acquired with 1 min intervals between 3D stacks. For all imaging studies, the 20× lens was submerged directly into artificial cerebral spinal fluid (aCSF; 119 mM NaCl, 26.2 mM NaHCO3, 2.5 mm KCl, 1 mM NaH2PO4, 1.3 mM MgCl2, 1.2 mM CaCl2, 0.4% glucose, pH 7.4) placed atop the thinned skull.
Purinergic receptor, connexin hemichannel, and ROS antagonism. Prior to skull thinning, antagonists diluted in aCSF were applied directly to the skull bone, and vehicle was simultaneously applied to the opposite hemisphere to serve as a control. […] Vehicle and purinergic receptor antagonists were applied as a 3 mm diameter bubble on the skull surface and replenished as needed over a 30 min incubation period to prevent drying. This allowed the antagonists to continuously pass through the skull bone. Following the 30 min incubation, the skull was dried and then thinned to induce a compression injury over both hemispheres. Imaging was initiated immediately after injury. For most studies, the skull bone pre-incubated with antagonists was imaged continuously for 3-10 hrs, after which a 3D stack was captured from both the vehicle and antagonist treated areas for quantitative purposes. […] A similar study was conducted using 10 mM CBX.
Image Analysis. All quantitative analyses and processing of 3D/4D imaging data were performed using Imaris 7.0 software (Bitplane). Supplemental movies were constructed and annotated using Adobe Premiere Pro CS4. Microglia “honeycomb” reactions were quantified from 434×434×150 μm (xyz) 3D image stacks obtained at selected time points in CX3CR1^gfp/+ mice. This was accomplished by measuring the total length of microglial processes in contact with the glial limitans. […] Afterward, 10 microglia per mouse were randomly selected for quantification of process length. Only cells with all of their processes in the field of view and no more than 50 μm beneath the skull bone were quantified. Microglial processes that were touching (flat against) the glial limitans were labeled and measured using the Imaris “filaments” tool. […]

[2] = tested on: microglia processes associated with the glial limitans; assay: Length of microglial processes in contact with the glial limitans after meningeal compression injury; format: in vivo, mice; settings: for length of microglial processes in contact with the glial limitans: transcranial administration of antagonist before injury, three hours following injury, p<0.05, FIG. 4
Protocol: as §1
(§2) Intravital two-photon laser scanning microscopy. […] Fluorescence emission was separated by high efficiency custom dichroic mirrors (Semrock) and collected with a NDD4 external detector (Leica). […]
(§3) Purinergic receptor, connexin hemichannel, and ROS antagonism. […] For most studies, the skull bone pre-incubated with antagonists was imaged continuously for 3-10 hrs, after which a 3D stack was captured from both the vehicle and antagonist treated areas for quantitative purposes. […]
Image Analysis. All quantitative analyses and processing of 3D/4D imaging data were performed using Imaris 7.0 software (Bitplane). […] Microglia “honeycomb” reactions were quantified from 434×434×150 μm (xyz) 3D image stacks obtained at selected time points in CX3CR1^gfp/+ mice. […] Afterward, 10 microglia per mouse were randomly selected for quantification of process length. Only cells with all of their processes in the field of view and no more than 50 μm beneath the skull bone were quantified. Microglial processes that were touching (flat against) the glial limitans were labeled and measured using the Imaris “filaments” tool. […]

neutrophils = assay: Neutrophil recruitment following meningeal compression injury; format: in vivo, LysM-GFP transgenic reporter mouse; settings: p<0.05
Protocol: Skull Thinning & Compression Injury. For imaging experiments, mice were anesthetized with ketamine (85 mg/kg), xylazine (13 mg/kg), and acepromazine (2 mg/kg) in PBS and maintained at a core temperature of 37° C. The skull bone over the barrel cortex was then thinned to a thickness of ˜30-40 μm as described (PMID: 20134419). For this procedure, the bone was manually thinned over a 30 minute period, and the amount of downward pressure was kept to a minimum. To induce a compression injury, the skull was thinned within 5 min to a thickness of ˜10-15 μm. Once thinned, the blunt of a surgical instrument was used to gently press the pliable skull bone downward. […]
as §2, §3
Image Analysis. All quantitative analyses and processing of 3D/4D imaging data were performed using Imaris 7.0 software (Bitplane). […] Afterward, 10 microglia per mouse were randomly selected for quantification of process length. […]

[3] = Skull bone permeability analysis (transcranial permeation of fluorescent probes); format: in vivo, mice; settings: applied to intact skull bone as 3 mm bubble; 2P microscopy immediately after loading; FIG. 2
Protocol: Skull bone permeability analysis. For skull bone permeability studies, the following rhodamine-labeled dextrans were placed directly on the intact skull bone for up to 30 min: 3,000 MW (25 mM), 10,000 MW (5 mM), 40,000 MW (1 mM), and 70,000 MW (0.5 mM). SR101 (1 mM), a sulforhodamine dye, was used as a representative of 600 MW compound. Compounds were replenished as needed to prevent drying. Following the incubation period, the skull bone was quickly thinned and imaged. A 3D stack was captured to determine if the fluorescence could be found beneath the skull bone.
This example illustrates the effect of molecular weight of the compounds on the rate of transcranial permeation. To define the time and size of compounds that pass directly through the intact (non-thinned) skull, […] SR101 (600 MW) or different sized rhodamine-dextrans (25 mM 3,000 MW; 5 mM 10,000 MW; 1 mM 40,000 MW; 0.5 mM 70,000 MW) were applied to the skull bone. A 3 mm diameter bubble was left on the skull surface for the amount of time noted in minutes on the y axis of the table above. Because all compounds fluoresced, 2P microscopy was performed immediately after transcranial loading to determine if the compounds were present in the subarachnoid space.

Row | Compound | percentage of phagocytic (jellyfish) microglia in the imaging field [1] | length of microglial processes in contact with the glial limitans [2] | also measured
1 | trinitrophenyl-ATP hydrate [TNP-ATP hydrate] | significantly reduced | significantly reduced | 
2 | CSc1nc(N)c2ncn([C@@H]3O[C@H](COP(=O)(O)O)[C@@H](O)[C@H]3O)c2n1 [MeSAMP] | significantly reduced | significantly reduced | 
3 | N[C@@H](CCC(=O)N[C@@H](CS)C(=O)NCC(=O)O)C(=O)O [glutathione] |  |  | formation of phagocytic (jellyfish) microglia following injury ([1]; pretreatment with 100 mM, transcranial, FIG. 9): eliminated the formation; microglia extending their processes and contacting the glial limitans ([2]; pretreatment with 100 mM, transcranial, FIG. 10): completely prevented; recruitment of neutrophils following compression injury (neutrophils; pretreatment with 100 mM, transcranial, FIG. 8): significantly reduced
4 | Nc1ncnc2c1ncn2[C@@H](C=O)O[C@@H](C=O)COP(=O)(O)OP(=O)(O)OP(=O)(O)O [oxidized ATP] | not |  | neutrophil recruitment to the injury site (neutrophils; transcranial P2X7 antagonist applied to skull before injury, FIG. 5): completely blocked
5 | O=S(=O)([O-])c1cc(S(=O)(=O)O)ccc1C1=c2cc3c4c(c2Oc2c1cc1c5c2CCCN5CCC1)CCC[N+]=4CCC3 [SR101] |  |  | rate of passage through the skull into the subarachnoid space [3]: pass through the skull more quickly than larger compounds
6 | S=C=Nc1cccc(NC(=S)NCCCCNC(=S)Nc2cccc(N=C=S)c2)c1 [MRS2578] | significantly reduced |  | 

From US9974801B2, “Methods of treating and preventing diseases and disorders of the central nervous system” (The United States of America, as represented by the …, priority 2012, dated 2018)
